In ChEMBL document CHEMBL1138582, “5-Aminopyrimidin-2-ylnitriles as cathepsin K inhibitors” (Bioorg Med Chem Lett, 2009):

How the values were obtained:
[1] = Electrophilicity, glutathione reactivity assessed as half life; assay type: physicochemical; parameters: unit not given here
[2] = target: Cathepsin B (Homo sapiens, UniProt P07858); assay: Inhibition of cathepsin B
[3] = target: T1, Cathepsin K (Homo sapiens, UniProt P43235); assay: Inhibition of cathepsin K
T1 sequence (P43235 whole entry): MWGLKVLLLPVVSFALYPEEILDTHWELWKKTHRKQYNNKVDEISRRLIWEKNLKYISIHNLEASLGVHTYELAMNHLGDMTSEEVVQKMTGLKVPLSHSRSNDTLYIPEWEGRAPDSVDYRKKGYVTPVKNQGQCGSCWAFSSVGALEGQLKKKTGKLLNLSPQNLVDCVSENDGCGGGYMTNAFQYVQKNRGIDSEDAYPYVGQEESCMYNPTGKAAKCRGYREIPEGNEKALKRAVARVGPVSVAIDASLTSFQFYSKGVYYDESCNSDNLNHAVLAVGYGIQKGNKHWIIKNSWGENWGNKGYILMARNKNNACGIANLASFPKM

[4] = target: Cathepsin S (Homo sapiens, UniProt P25774); assay: Inhibition of cathepsin S
Sequence of Cathepsin S (P25774 whole entry): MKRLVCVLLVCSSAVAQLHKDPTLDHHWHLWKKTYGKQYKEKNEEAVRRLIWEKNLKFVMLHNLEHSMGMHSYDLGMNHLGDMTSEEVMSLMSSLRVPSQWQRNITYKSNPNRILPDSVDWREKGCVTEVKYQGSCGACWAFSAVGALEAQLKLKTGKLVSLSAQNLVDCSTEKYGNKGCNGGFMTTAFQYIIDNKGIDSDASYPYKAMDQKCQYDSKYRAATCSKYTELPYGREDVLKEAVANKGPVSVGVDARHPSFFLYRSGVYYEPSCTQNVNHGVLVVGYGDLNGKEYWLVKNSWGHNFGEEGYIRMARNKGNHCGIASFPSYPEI

[5] = target: Procathepsin L (Homo sapiens, UniProt P07711); assay: Inhibition of cathepsin L
Sequence of Procathepsin L (P07711 whole entry): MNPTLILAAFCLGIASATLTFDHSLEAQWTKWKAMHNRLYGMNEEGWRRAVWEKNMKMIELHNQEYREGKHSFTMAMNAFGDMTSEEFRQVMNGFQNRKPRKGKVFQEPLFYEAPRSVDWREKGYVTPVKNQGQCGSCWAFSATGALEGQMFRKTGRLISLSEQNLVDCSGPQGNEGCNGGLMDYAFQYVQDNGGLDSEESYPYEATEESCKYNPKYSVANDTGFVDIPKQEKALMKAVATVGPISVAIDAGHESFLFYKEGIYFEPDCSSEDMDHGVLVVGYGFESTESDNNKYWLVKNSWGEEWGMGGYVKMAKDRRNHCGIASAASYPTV

SMILES | logt1/2 [1] | IC50 [3] [nM] | further results
CNc1nc(C#N)nc(N(C)C)c1N | 3.38 |  | 
CC(C)CNc1nc(C#N)nc(N2CCNCC2)c1N |  | 6 | IC50 [2]: 6100 nM; IC50 [4]: 890 nM; IC50 [5]: 1400 nM
CC(C)(C)CNc1nc(C#N)nc(N2CCOCC2)c1N |  | 17 | IC50 [2]: > 10000 nM; IC50 [4]: 910 nM; IC50 [5]: > 10000 nM
CC(C)CNc1nc(C#N)nc(N2CC(O)C2)c1N |  | 32 | 
CN(C)c1nc(C#N)nc(Nc2ccccc2)c1N | 3 |  | 
N#Cc1nc(N2CCCC2)c(N)c(N2CCOCC2)n1 |  | 60 | 
CN(C)c1nc(C#N)nc(Nc2ccccc2)n1 | 2.07 |  | 
CC(C)CNc1nc(C#N)nc(NC2CCS(=O)(=O)C2)c1N (configuration not stated) |  | 14 | 
CN(C)c1nc(C#N)nc(Oc2ccccc2)c1N | 2.98 |  | 
CNc1cc(N(C)C)nc(C#N)n1 | 2.67 |  | 
CCC(C)Nc1nc(C#N)nc(N2CCOCC2)c1N (configuration not stated) |  | 300 | 
CNc1c(Nc2ccccc2)nc(C#N)nc1N(C)C | 2.91 |  | 
N#Cc1nc(NC2CC3CCC2C3)c(N)c(N2CCOCC2)n1 (configuration not stated) |  | 2 | 
CC(C)Nc1nc(C#N)nc(N2CCOCC2)c1N |  | 560 | 
COc1c(Nc2ccccc2)nc(C#N)nc1N(C)C | 2.31 |  | 
CC(C)CNc1nc(C#N)nc(N2CCOCC2)c1N |  | 18 | IC50 [4]: 560 nM; IC50 [5]: 2000 nM
CN(C)c1nc(C#N)nc(N(C)C)c1N | 3.26 |  | 
N#Cc1nc(N2CCCCC2)c(N)c(N2CCOCC2)n1 |  | 22 | 
COCCNc1nc(C#N)nc(NCC(C)C)c1N |  | 24 | 
CN(C)c1cc(Nc2ccccc2)nc(C#N)n1 | 2.12 |  | 
CC(=O)N1CCN(c2nc(C#N)nc(NCC(C)C)c2N)CC1 |  | 9 | 
N#Cc1nc(Nc2ccccc2)c(N)c(N2CCOCC2)n1 |  | 110 | 
N#Cc1nc(NC2CCCC2)c(N)c(N2CCOCC2)n1 |  | 13 | 
CN(C)c1cc(N(C)C)nc(C#N)n1 | 2.56 |  | 
N#Cc1nc(NC2CCCCC2)c(N)c(N2CCOCC2)n1 |  | 23 | 
CNc1nc(C#N)nc(N(C)C)c1Br | 2.19 |  | 
N#Cc1nc(NC2CCOC2)c(N)c(N2CCOCC2)n1 (configuration not stated) |  | 340 | 
CNc1nc(C#N)nc(N(C)C)c1[N+](=O)[O-] | < 2.08 |  | 
CC(C)CNc1nc(C#N)nc(NCc2nnn[nH]2)c1N |  | 62 | 
